US8609635B2, “Fused tricyclic silyl compounds and methods of use thereof for the treatment of viral diseases” (priority 2010, dated 2013)
Like-named read-outs stand apart in the source and are kept apart here.

Assays:
HCV replicon gt1a_H77 = assay: Cell-based HCV replicon assay (TaqMan), genotype 1a (H77); conditions: replicon 1a (H77), replicon RNA by TaqMan, day 3
Description: (§1) Measurement of inhibition by compounds of the present invention was performed using the HCV replicon system. Several different replicons encoding different HCV genotypes or mutations were used. In addition, potency measurements were made using different formats of the replicon assay, including different ways of measurements and different plating formats. See Jan M. Vrolijk et al., A replicons-based bioassay for the measurement of interferons in patients with chronic hepatitis C, 110 J. VIROLOGICAL METHODS 201 (2003); Steven S. Carroll et al., Inhibition of Hepatitis C Virus RNA Replication by 2′-Modified Nucleoside Analogs, 278(14) J. BIOLOGICAL […] 11979 (2003). However, the underlying principles are common to all of these determinations, and are outlined below.
(§2) Compounds of the present invention were assayed for cell-based anti-HCV activity using the following protocol. Replicon cells were seeded at 5000 cells/well in 96-well collagen I-coated Nunc plates in the presence of the test compound. Various concentrations of test compound, typically in 10 serial 2-fold dilutions, were added to the assay mixture, with the starting concentration ranging from 250 μM to 1 μM. The final concentration of DMSO was 0.5%, fetal bovine serum was 5%, in the assay media. Cells were harvested on day 3 by the addition of 1× cell lysis buffer (Ambion cat #8721). The replicon RNA level was measured using real time PCR (TaqMan® assay). The amplicon was located in 5B. The PCR primers were: 5B.2F, […] (SEQ. ID NO. 1); 5B.2R, […] (SEQ. ID NO. 2); the probe sequence was FAM-labeled […] (SEQ. ID NO. 3). GAPDH RNA was used as endogenous control and was amplified in the same reaction as NS5B (multiplex PCR) using primers and VIC-labeled probe recommended by the manufacturer (PE Applied Biosystem). The real-time RT-PCR reactions were run on ABI PRISM 7900HT Sequence Detection System using the following program: 48° C. for 30 minutes, 95° C. for 10 minutes, 40 cycles of 95° C. for 15 sec, 60° C. for 1 minute. The ΔCT values (CT5B-CTGAPDH) were plotted against the concentration of test compound and fitted to the sigmoid dose-response model using XLfit4 (MDL). […] Alternatively, to quantitate the absolute amount of replicon RNA, a standard curve was established by including serially diluted T7 transcripts of replicon RNA in the Taqman assay. All TaqMan® reagents were from PE Applied Biosystems. Such an assay procedure was described in detail in e.g. Malcolm et al., Antimicrobial Agents and Chemotherapy 50: 1013-1020 (2006).
(§3) Wherein gt1a_H77 was prepared as described in Yi et al., J Virol. 2004, 78(15):7904-15; gt1b_con1 was prepared as described in Lohmann et al., Science 1999, 285(5424):110-3; and gt2a_JFH was prepared as described in Kato et al., Gastroenterology. 2003, 125(6):1808-17. Chimeric replicons contain NS5A from patient isolates of genotypes 1a, 1b, 2b, 3a and 4a as indicated.

HCV replicon gt1b_con1 = assay: Cell-based HCV replicon assay (TaqMan), genotype 1b (Con1); conditions: replicon 1b (Con1), replicon RNA by TaqMan, day 3
Description: as §1, §2, §3

HCV replicon gt2a_JFH = assay: Cell-based HCV replicon assay (TaqMan), genotype 2a (JFH); conditions: replicon 2a (JFH), replicon RNA by TaqMan, day 3
Description: as §1, §2, §3

[1] = system: HCV chimeric replicon with NS5A of genotype 3a (NC00982); assay: Cell-based HCV replicon assay (TaqMan), chimeric replicon genotype 3a (NC00982); conditions: replicon RNA by TaqMan, day 3
Description: as §1, §2, §3

[2] = system: HCV replicon 1a (Y93H) mutant; assay: Cell-based HCV replicon assay (TaqMan), genotype 1a mutant Y93H; conditions: read-out: HCV replicon EC50 1a (Y93H)
Description: as §1, §2, §3

[3] = system: HCV chimeric replicon with NS5A of genotype 4a (DQ41878); assay: Cell-based HCV replicon assay (TaqMan), chimeric replicon genotype 4a (DQ41878); conditions: Hepatitis C virus, 72 h, read-out: HCV replicon EC50 4a (DQ41878)
Description: as §1, §2, §3

[4] = Hepatitis C virus, 72 h, read-out: HCV replicon EC50 3a (NC00982), chimeric replicon 3a (NC00982)

Compound | EC50 (HCV replicon gt1a_H77; Hepatitis C virus, 72 h) [nM] | EC50 (HCV replicon gt1b_con1; Hepatitis C virus, 72 h) [nM] | EC50 (HCV replicon gt2a_JFH; Hepatitis C virus, 72 h) [nM] | EC50 [1, 4] [nM] | EC50 ([2]; Hepatitis C virus, 72 h) [nM] | EC50 [3] [nM] | EC50 (HCV replicon gt1a_H77) [nM] | EC50 (HCV replicon gt1b_con1) [nM] | EC50 (HCV replicon gt2a_JFH) [nM] | EC50 ([1]; chimeric replicon 3a (NC00982), read-out: HCV replicon EC50 3a (NC00982)) [nM] | EC50 ([2]; replicon 1a mutant Y93H, replicon RNA by TaqMan, day 3) [nM]
COC(=O)N[C@H](C(=O)N1C[Si](C)(C)C[C@H]1c1ncc(-c2ccc(-c3ccc4c(ccc5nc([C@@H]6CCCN6C(=O)[C@@H](NC(=O)OC)C(C)C)[nH]c54)c3)cc2OCCOC(C)=O)[nH]1)C(C)C [Compound 45] | > 1 | 0.009 | > 10 | 52 | 2640 | – | – | – | – | – | –
COC(=O)N[C@H](C(=O)N1C[Si](C)(C)C[C@H]1c1ncc(-c2ccc(-c3ccc4c(ccc5nc([C@@H]6CC(F)(F)CN6C(=O)[C@@H](NC(=O)OC)C(C)C)[nH]c54)c3)cn2)[nH]1)C(C)C [Compound 72] | 0.1 | 0.004 | 0.496 | 2.41 | 246 | – | – | – | – | – | –
COC(=O)N[C@H](C(=O)N1C[Si](C)(C)C[C@H]1c1ncc(-c2ccc(-c3ccc4c(ccc5nc([C@@H]6CCCN6C(=O)[C@@H](NC(=O)OC)C(C)C)[nH]c54)c3)cc2C2CC2)[nH]1)C(C)C [Compound 47] | 0.4 | 0.007 | 1.7 | 5.5 | 1600 | – | – | – | – | – | –
COC(=O)N[C@H](C(=O)N1C[Si](C)(C)C[C@H]1c1ncc(-c2ccc(-c3ccc4c(ccc5nc([C@@H]6CCCN6C(=O)[C@@H](NC(=O)OC)C(C)C)[nH]c54)c3)nc2)[nH]1)C(C)C [Compound 49] | 0.04 | 0.014 | 0.037 | 0.2 | 185 | – | – | – | – | – | –
COC(=O)N[C@H](C(=O)N1C[Si](C)(C)C[C@H]1c1ncc(-c2ccc(-c3ccc4c(ccc5nc([C@@H]6CC(F)(F)CN6C(=O)[C@@H](NC(=O)OC)C(C)C)[nH]c54)c3)c(F)c2)[nH]1)C(C)C [Compound 58] | 0.03 | 0.002 | 0.15 | 0.8 | 118 | 0.36 | – | – | – | – | –
COC(=O)N[C@H](C(=O)N1C[Si](C)(C)C[C@H]1c1ncc(-c2ccc(-c3ccc4c(ccc5nc([C@@H]6CCCN6C(=O)[C@@H](NC(=O)OC)C(C)C)[nH]c54)c3)cc2OC)[nH]1)C(C)C [Compound 46] | 0.26 | 0.004 | 0.6 | 2.4 | 497 | – | – | – | – | – | –
COC(=O)N[C@H](C(=O)N1C[Si]2(CCCC2)C[C@H]1c1ncc(-c2ccc(-c3ccc4c(ccc5nc([C@@H]6CC(F)(F)CN6C(=O)[C@@H](NC(=O)OC)C(C)C)[nH]c54)c3)cc2)[nH]1)C(C)C [Compound 89] | 0.054 | 0.006 | 0.5 | 0.275 | 211 | 0.035 | – | – | – | – | –
COC(=O)N[C@H](C(=O)N1C[Si](C)(C)C[C@H]1c1ncc(-c2ccc(-c3ccc4c(ccc5nc([C@@H]6CCCN6C(=O)[C@@H](NC(=O)OC)C(C)C)[nH]c54)c3)cc2-c2ccncc2)[nH]1)C(C)C [Compound 51] | > 1 | 0.05 | > 10 | > 100 | 8420 | – | – | – | – | – | –
COC(=O)N[C@H](C(=O)N1C[Si](C)(C)C[C@H]1c1ncc(-c2ccc(-c3ccc4c(ccc5nc([C@@H]6CCCN6C(=O)[C@@H](NC(=O)OC)C(C)C)[nH]c54)c3)cc2-c2cccs2)[nH]1)C(C)C [Compound 50] | 0.505 | 0.008 | 1.62 | 3 | 1150 | – | – | – | – | – | –
COC(=O)N[C@H](C(=O)N1CC(C)(C)C[C@H]1c1ncc(-c2ccc(-c3ccc4c(ccc5nc([C@@H]6C[Si](C)(C)CN6C(=O)[C@@H](NC(=O)OC)C(C)C)[nH]c54)c3)cc2)[nH]1)C(C)C [Compound 78] | 0.015 | 0.001 | 0.04 | 0.26 | 90 | 0.137 | – | – | – | – | –
COC(=O)N[C@H](C(=O)N1C[Si](C)(C)C[C@H]1c1ncc(-c2ccc(-c3ccc4c(ccc5nc([C@@H]6CCCN6C(=O)[C@@H](NC(=O)OC)C(C)C)[nH]c54)c3)cc2OCCO)[nH]1)C(C)C [Compound 44] | > 1 | 0.007 | > 10 | 31 | 1390 | – | – | – | – | – | –
COC(=O)NC(C(=O)N1CCCC1c1ncc(-c2ccc(-c3ccc4c(ccc5nc([C@@H]6C[Si](C)(C)CN6C(=O)C(NC(=O)OC)C(C)C)[nH]c54)c3)cc2)[nH]1)C(C)C (stereo partly drawn) [Compound 1] | 0.003 | 0.003 | 0.003 | 0.26 | – | 0.067 | – | – | – | – | –
COC(=O)N[C@H](C(=O)N1C[Si](C)(C)C[C@H]1c1ncc(-c2ccc(-c3ccc4c(ccc5nc([C@@H]6CCCN6C(=O)[C@@H](NC(=O)OC)C(C)C)[nH]c54)c3)cc2F)[nH]1)C(C)C [Compound 48] | 0.05 | 0.004 | 0.07 | 0.25 | 329 | – | – | – | – | – | –
COC(=O)N[C@H](C(=O)N1CC(F)(F)C[C@H]1c1ncc(-c2ccc3oc(-c4ccc5c(ccc6nc([C@@H]7C[Si](C)(C)CN7C(=O)[C@@H](NC(=O)OC)C(C)C)[nH]c65)c4)cc3c2)[nH]1)C(C)C [Compound 42] | – | – | – | – | – | – | 0.012 | 0.005 | > 10 | 11.4 | 103
COC(=O)N[C@H](C(=O)N1C[Si](C)(C)C[C@H]1c1ncc(-c2ccc(-c3ccc4c(ccc5nc([C@@H]6CC(F)(F)CN6C(=O)[C@@H](NC(=O)OC)C(C)C)[nH]c54)c3)cc2F)[nH]1)C(C)C [Compound 71] | 0.12 | < 0.002 | 0.45 | 0.9 | 188 | – | – | – | – | – | –
COC(=O)N[C@H](C(=O)N1CC(O)C[C@H]1c1ncc(-c2ccc(-c3ccc4c(ccc5nc([C@@H]6C[Si](C)(C)CN6C(=O)[C@@H](NC(=O)OC)C(C)C)[nH]c54)c3)cc2)[nH]1)C(C)C (stereo partly drawn) [Compound 65] | 0.06 | 0.004 | 0.3 | 1.7 | 44 | – | – | – | – | – | –
COC(=O)NC(C(=O)N1C[Si](C)(C)CC1c1ncc(-c2ccc(-c3ccc4c(ccc5nc([C@@H]6CCCN6C(=O)C(NC(=O)OC)C(C)C)[nH]c54)c3)cc2)[nH]1)C(C)C (stereo partly drawn) [Compound 2] | 0.01 | 0.004 | 0.019 | 0.05 | – | – | – | – | – | – | –
COC(=O)NC(C(=O)N1C2CCC(C2)C1c1ncc(-c2ccc(-c3ccc4c(ccc5nc([C@@H]6C[Si](C)(C)CN6C(=O)C(NC(=O)OC)C(C)C)[nH]c54)c3)cc2)[nH]1)C(C)C (stereo partly drawn) [Compound 15] | 0.088 | 0.011 | 0.12 | 1 | 131 | – | – | – | – | – | –
COC(=O)NC(C(=O)N1C[Si](C)(C)CC1c1ncc(-c2ccc(-c3ccc4c(ccc5nc([C@@H]6C7CCC(C7)N6C(=O)C(NC(=O)OC)C(C)C)[nH]c54)c3)cc2)[nH]1)C(C)C (stereo partly drawn) [Compound 16] | 0.04 | 0.004 | 0.06 | 0.23 | 146 | – | – | – | – | – | –
COC(=O)NC(C(=O)N1C[Si](C)(C)CC1c1ncc(-c2ccc(-c3ccc4c(ccc5nc([C@@H]6CCCN6C(=O)C(NC(=O)OC)C(C)C)[nH]c54)c3)s2)[nH]1)C(C)C (stereo partly drawn) [Compound 20] | 0.14 | 0.004 | 0.3 | 0.26 | 921 | – | – | – | – | – | –
